Experimental data: PubChem BioAssay (NCI)
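48-hour exposure; five concentrations; linearly interpolated endpoints. TGI is the concentration that stops growth completely.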

How the values were obtained:
Assay in all cases: DTP human tumour cell line panel, 48 h
OVCAR-8 ovarian = tested on: OVCAR-8 ovarian
K-562 leukemia = tested on: K-562 leukemia
RPMI-8226 leukemia = tested on: RPMI-8226 leukemia
SF-539 CNS = tested on: SF-539 CNS
U251 CNS = tested on: U251 CNS
SK-MEL-2 melanoma = tested on: SK-MEL-2 melanoma
ACHN renal = tested on: ACHN renal
TK-10 renal = tested on: TK-10 renal
SNB-19 CNS = tested on: SNB-19 CNS
SF-295 CNS = tested on: SF-295 CNS
SK-MEL-28 melanoma = tested on: SK-MEL-28 melanoma
HL-60(TB) leukemia = tested on: HL-60(TB) leukemia
UACC-62 melanoma = tested on: UACC-62 melanoma
KM12 colon = tested on: KM12 colon
A549 NSCLC = tested on: A549 NSCLC
UO-31 renal = tested on: UO-31 renal
NCI-H226 lung = tested on: NCI-H226 lung
RXF 393 renal = tested on: RXF 393 renal
HT29 colon = tested on: HT29 colon
HCC-2998 colon = tested on: HCC-2998 colon

Measured: TGI

CC(=S)NC1C(Oc2ccc3c(C)cc(=O)oc3c2)OC(CO)C(O)C1O (stereo not drawn)
> 100 µM: OVCAR-8 ovarian | K-562 leukemia | RPMI-8226 leukemia | SF-539 CNS | U251 CNS | SK-MEL-2 melanoma | ACHN renal | TK-10 renal | SNB-19 CNS | SF-295 CNS | SK-MEL-28 melanoma | HL-60(TB) leukemia | UACC-62 melanoma | KM12 colon | A549 NSCLC | UO-31 renal | NCI-H226 lung | RXF 393 renal | HT29 colon

CC(C)OP(=O)(OC(C)C)c1ncn(-c2ccc([N+](=O)[O-])cc2)n1
> 100 µM: OVCAR-8 ovarian | K-562 leukemia | RPMI-8226 leukemia | SF-539 CNS | U251 CNS | SK-MEL-2 melanoma | ACHN renal | TK-10 renal | SNB-19 CNS | SF-295 CNS | HCC-2998 colon | SK-MEL-28 melanoma | HL-60(TB) leukemia | UACC-62 melanoma | KM12 colon | A549 NSCLC | UO-31 renal | NCI-H226 lung | RXF 393 renal | HT29 colon

C[Si](C)(C)C1=C2C(=O)c3ccccc3C(=O)C2=C([Si](C)(C)C)[C@@H]2CCCC[C@H]12
> 100 µM: K-562 leukemia | RPMI-8226 leukemia | SF-539 CNS | U251 CNS | SK-MEL-2 melanoma | ACHN renal | TK-10 renal | SNB-19 CNS | SF-295 CNS | HCC-2998 colon | SK-MEL-28 melanoma | HL-60(TB) leukemia | UACC-62 melanoma | A549 NSCLC | UO-31 renal | RXF 393 renal

CN1C(=N\S(=O)(=O)c2ccc(Cl)cc2)/C(=N/N=P(c2ccccc2)(c2ccccc2)c2ccccc2)c2ccccc21
> 100 µM: OVCAR-8 ovarian | K-562 leukemia | SF-539 CNS | U251 CNS | SK-MEL-2 melanoma | ACHN renal | TK-10 renal | SNB-19 CNS | SF-295 CNS | HCC-2998 colon | SK-MEL-28 melanoma | UACC-62 melanoma | KM12 colon | A549 NSCLC | UO-31 renal | NCI-H226 lung | RXF 393 renal | HT29 colon
